Literature values as cited in US5929038A, “Pharmaceutical preparations which inhibit hepatitis B virus (HBV) replication” (Choongwae Pharmaceutical Co., Ltd., priority 1992, dated 1999).

System: hepatitis B (HBV infection)
Details: cited from earlier work

In the case of `Nc1ncnc2c1ncn2[C@@H]1O[C@H](COP(=O)(O)O)[C@@H](O)[C@@H]1O` [ara-AMP, reference compound], the “suppression of HBV infection” value (clinical use) is given as “transiently suppress HBV infection” and the toxicities (in vivo) is given as “often serious toxicities”.
